Measured values published in US11535838B2, “Serine protease molecules and therapies” (Research Development Foundation, priority 2012, dated 2022).

Key:
[1] = Enzymatic assay of GrB component, continuous colorimetric assay; type: biochemical; conditions: substrate BAADT, 25° C., native GrB as standard
Description: The enzymatic activity of the GrB component was determined in a continuous colorimetric assay using N-α-t-butoxycarbonyl-L-alanyl-L-alanyl-L-aspartyl-thiobenzylester (BAADT) as a specific substrate (Liu et al., 2003). Assays consisted of commercial human GrB (Enzyme Systems Products, Livermore, Calif.) or GrB-based fusion proteins in BAADT at 25° C. […] The specific activity of GrB-based fusion proteins was calculated using native GrB as the standard.

[2] = tested on: MDA-MB-453; assay: Cytotoxic effects of GrB/4D5 fusion constructs with and without a translocation domain; type: cell-based; conditions: MDA-MB-453, Her2 Exp. High
Text: (§1) Further GrB expression constructs were developed and tested.
(§2) These constructs were expressed and tested.

[3] = tested on: NCI-N87; assay: as above; type: cell-based; conditions: NCI-N87, Her2 Exp. High
Text: as §1, §2

[4] = tested on: Me-180; assay: as above; type: cell-based; conditions: Me-180, Her2 Exp. none
Text: as §1, §2

[5] = tested on: Calu-3; assay: as above; type: cell-based; conditions: Calu-3, Her2 Exp. High
Text: as §1, §2

[6] = tested on: SKOV3; assay: as above; type: cell-based; conditions: SKOV3, Her2 Exp. High
Text: as §1, §2

[7] = tested on: SKBR3; assay: as above; type: cell-based; conditions: SKBR3, Her2 Exp. High
Text: as §1, §2

[8] = tested on: NCI-N87; assay: In vitro cytotoxic effects of GrB-based fusions, crystal violet; type: cell-based; conditions: Table 11, NCI-N87, 72 h exposure
[9] = tested on: MDA MB435; assay: as above; type: cell-based; conditions: Table 11, MDA MB435, 72 h exposure
[10] = tested on: Calu3; assay: as above; type: cell-based; conditions: Table 11, Calu3, 72 h exposure
[11] = tested on: eB-1; assay: as above; type: cell-based, human; conditions: Table 11, eB-1, 72 h exposure
[12] = tested on: H520; assay: Cytotoxicity of GrB-Fc-IT4 constructs; type: cell-based
Text: (§3) As an initial test of this arrangement a construct was produced comprising GrB-Fc-IT4 (scFv). Specifically, the IT4 scFv targets the product of the tumor necrosis factor receptor superfamily, member 12A (TNFRSF12A) gene and was previously described in Zhou et al., 2011, which is incorporated herein by reference. The sequence of the fusion protein produced by the construct is provided as SEQ ID NO: 45. The constructs was expressed and purified as detailed supra and tested for activity against a panel of cells lines (using GrB alone a control).

[13] = tested on: Capan-1; assay: Cytotoxicity of GrB-Fc-IT4 constructs; type: cell-based
Text: as §3

[14] = tested on: MDA-MB-231; assay: Cytotoxicity of GrB-Fc-IT4 constructs; type: cell-based
Text: as §3

[15] = tested on: Capan-2; assay: Cytotoxicity of GrB-Fc-IT4 constructs; type: cell-based
Text: as §3

[16] = tested on: AsPc-1; assay: Cytotoxicity of GrB-Fc-IT4 constructs; type: cell-based
Text: as §3

[17] = tested on: WM35; assay: Cytotoxicity of GrB-Fc-IT4 constructs; type: cell-based
Text: as §3

[18] = tested on: MCF-7; assay: Cytotoxicity of GrB-Fc-IT4 constructs; type: cell-based
Text: as §3

[19] = tested on: MDA-MD-231-Luc; assay: Cytotoxicity of GrB-Fc-IT4 constructs; type: cell-based
Text: as §3

[20] = tested on: A549; assay: Cytotoxicity of GrB-Fc-IT4 constructs; type: cell-based
Text: as §3

[21] = tested on: HCC827; assay: Cytotoxicity of GrB-Fc-IT4 constructs; type: cell-based
Text: as §3

[22] = tested on: HT-29; assay: Cytotoxicity of GrB-Fc-IT4 constructs; type: cell-based
Text: as §3

[23] = tested on: HCC2279; assay: Cytotoxicity of GrB-Fc-IT4 constructs; type: cell-based
Text: as §3

[24] = tested on: WM35P2N1; assay: Cytotoxicity of GrB-Fc-IT4 constructs; type: cell-based
Text: as §3

[25] = tested on: MEF 3.5 −/−; assay: Cytotoxicity of GrB-Fc-IT4 constructs; type: cell-based
Text: as §3

[26] = tested on: SK-MEF-28; assay: Cytotoxicity of GrB-Fc-IT4 constructs; type: cell-based
Text: as §3

[27] = tested on: H358; assay: Cytotoxicity of GrB-Fc-IT4 constructs; type: cell-based
Text: as §3

[28] = tested on: A375; assay: Cytotoxicity of GrB-Fc-IT4 constructs; type: cell-based
Text: as §3

[29] = tested on: SB2; assay: Cytotoxicity of GrB-Fc-IT4 constructs; type: cell-based
Text: as §3

[30] = tested on: H1975; assay: Cytotoxicity of GrB-Fc-IT4 constructs; type: cell-based
Text: as §3

[31] = tested on: L3.6p1; assay: Cytotoxicity of GrB-Fc-IT4 constructs; type: cell-based
Text: as §3

[32] = tested on: MDA-MB-435; assay: Cytotoxicity of GrB-Fc-IT4 constructs; type: cell-based
Text: as §3

[33] = tested on: H1437; assay: Cytotoxicity of GrB-Fc-IT4 constructs; type: cell-based
Text: as §3

[34] = tested on: H2073; assay: Cytotoxicity of GrB-Fc-IT4 constructs; type: cell-based
Text: as §3

[35] = tested on: H3255; assay: Cytotoxicity of GrB-Fc-IT4 constructs; type: cell-based
Text: as §3

[36] = tested on: Me180; assay: In vitro cytotoxic effects of GrB-based fusions, crystal violet; type: cell-based, human; conditions: Table 11, Me180, 72 h exposure
[37] = tested on: BxPC-3; assay: Cytotoxic effects of GrB versus GrB-TWEAK; type: cell-based
Text: (§4) Further GrB expression constructs were developed and tested. (GrB) encoded GrB, plasmid designation pSECTag-GrB. […] These constructs were expressed and tested.

[38] = tested on: T-24; assay: Cytotoxic effects of GrB versus GrB-TWEAK; type: cell-based
Text: as §4

[39] = tested on: A2780; assay: Cytotoxic effects of GrB versus GrB-TWEAK; type: cell-based
Text: as §4

[40] = tested on: OC-316; assay: Cytotoxic effects of GrB versus GrB-TWEAK; type: cell-based
Text: as §4

[41] = tested on: MDA-MB435; assay: Cytotoxic effects of GrB versus GrB-TWEAK; type: cell-based
Text: as §4

[42] = tested on: HEY; assay: Cytotoxic effects of GrB versus GrB-TWEAK; type: cell-based
Text: as §4

[43] = tested on: WM35; assay: Cytotoxic effects of GrB versus GrB-TWEAK; type: cell-based
Text: as §4

[44] = tested on: HT-1080; assay: Cytotoxic effects of GrB versus GrB-TWEAK; type: cell-based
Text: as §4

[45] = tested on: MCF-7; assay: Cytotoxic effects of GrB versus GrB-TWEAK; type: cell-based
Text: as §4

[46] = tested on: HeyA8-MDR; assay: Cytotoxic effects of GrB versus GrB-TWEAK; type: cell-based
Text: as §4

[47] = tested on: SK-Mel-5; assay: Cytotoxic effects of GrB versus GrB-TWEAK; type: cell-based
Text: as §4

[48] = tested on: HeyA8; assay: Cytotoxic effects of GrB versus GrB-TWEAK; type: cell-based
Text: as §4

[49] = tested on: HT-29; assay: Cytotoxic effects of GrB versus GrB-TWEAK; type: cell-based
Text: as §4

[50] = tested on: AAB-527; assay: Cytotoxic effects of GrB versus GrB-TWEAK; type: cell-based
Text: as §4

[51] = tested on: A375-M; assay: Cytotoxic effects of GrB versus GrB-TWEAK; type: cell-based
Text: as §4

[52] = tested on: ES-2; assay: Cytotoxic effects of GrB versus GrB-TWEAK; type: cell-based
Text: as §4

[53] = tested on: A172; assay: Cytotoxic effects of GrB versus GrB-TWEAK; type: cell-based
Text: as §4

[54] = tested on: MDA-MB435/MDR1; assay: Cytotoxic effects of GrB versus GrB-TWEAK; type: cell-based
Text: as §4

[55] = tested on: Jurkat; assay: Cytotoxic effects of GrB versus GrB-TWEAK; type: cell-based
Text: as §4

[56] = tested on: MDA-MB231; assay: Cytotoxic effects of GrB versus GrB-TWEAK; type: cell-based
Text: as §4

[57] = tested on: SB2; assay: Cytotoxic effects of GrB versus GrB-TWEAK; type: cell-based
Text: as §4

[58] = tested on: SK-Mel-1; assay: Cytotoxic effects of GrB versus GrB-TWEAK; type: cell-based
Text: as §4

[59] = tested on: SK-Mel-28; assay: Cytotoxic effects of GrB versus GrB-TWEAK; type: cell-based
Text: as §4

[60] = tested on: SKBR3; assay: Cytotoxic effects of GrB versus GrB-TWEAK; type: cell-based
Text: as §4

[61] = tested on: U87MG; assay: Cytotoxic effects of GrB versus GrB-TWEAK; type: cell-based
Text: as §4

[62] = tested on: AAB-527; assay: Cytotoxic effects of GrB/ZME fusion constructs; type: cell-based; conditions: AAB-527, specifically targeted by ZME
Text: (§5) GrB-ZME(VL-VH) fusion proteins were constructed as indicated above using different linkers between the GrB and ZME sequences. The construct SL used the G4S linker; LL was four repeats of the HL (EAAAK (SEQ ID NO: 14)) linker and X was a G4S+218 linker.
(§6) Two glycosylation sites were identified within the GrB molecule (d1 and d2) and modified the GrB/scFvMEL fusion construct as detailed above and as shown in FIG. 4 (d1 indicates N51S; d2 indicates N84A). Each glycosylation site was modified and then a molecule containing both modifications was generated. The individual modifications had little effect on in vitro GrB enzymatic activity (see, e.g., FIG. 4). […] There was little impact on the non-specific cell line (SKOV3).
(§7) Three expression constructs were developed and tested. (LL) encoded GrB-HL-HL-HL-HL-ZME(VL-VH), plasmid designation pSECTag-GrB-HL4-ZME; (E) encoded GrB HL HL HL HL T1 ZME(VL-VH), plasmid designation pSECTag-GrB-HL4-T1-ZME; and (J) (LL) encoded GrB (d1, A, N) HL HL HL HL ZME(VL-VH), plasmid designation pSECTag-GrB-HL4-ZME. The constructs were expressed and tested. […] Incorporation of d1 modified GrB into the construct further increased the specific cytotoxicity of the construct with no impact on non-specific cytotoxicity.
as §2
(§8) These constructs were expressed and tested. […] Incorporation of the “26” molecule increased the toxicity to target and non-target cells alike.

[63] = tested on: A375-M; assay: Cytotoxic effects of GrB/ZME fusion constructs; type: cell-based; conditions: specifically targeted by ZME
Text: as §5, §6, §7, §2, §8

[64] = tested on: SKOV3; assay: Cytotoxic effects of GrB/ZME fusion constructs; type: cell-based; conditions: SKOV3, non-specific control
Text: as §5, §6, §7, §2, §8

[65] = tested on: MDA MB453; assay: In vitro cytotoxic effects of GrB-based fusions, crystal violet; type: cell-based, human; conditions: Table 11, MDA MB453, 72 h exposure

native GrB: commercial human GrB (Enzyme Systems Products) used as the standard
GrB enzymatic activity [1]: 1.19×10^5 U/μmoL

GrB: recombinant Granzyme B without targeting moiety, plasmid pSECTag-GrB, used as control
IC50 [2]: > 1000 nM
IC50 [3]: > 1000 nM
IC50 [4]: > 1000 nM
IC50 [5]: > 1000 nM
IC50 [6]: > 1000 nM
IC50 [7]: > 1000 nM
IC50 [8]: > 1500 nM
IC50 [9]: > 1500 nM
IC50 [10]: > 1500 nM
IC50 [11]: > 1500 nM
IC50 [12]: 259 nM
IC50 [13]: 2340 nM
IC50 [14]: > 1930 nM
IC50 [15]: > 3200 nM
IC50 [16]: 1300 nM
IC50 [17]: > 1920 nM
IC50 [18]: > 1920 nM
IC50 [19]: 3550 nM
IC50 [20]: 602 nM
IC50 [21]: 1410 nM
IC50 [22]: > 3200 nM
IC50 [23]: 526 nM
IC50 [24]: 1540 nM
IC50 [25]: > 3200 nM
IC50 [26]: > 1920 nM
IC50 [27]: > 3200 nM
IC50 [28]: > 1920 nM
IC50 [29]: > 1920 nM
IC50 [30]: > 3200 nM
IC50 [31]: 1220 nM
IC50 [32]: 445 nM
IC50 [33]: > 3200 nM
IC50 [34]: > 3200 nM
IC50 [35]: 2360 nM
IC50 [36]: > 1500 nM
IC50 [37]: > 1920 nM
IC50 [38]: 2630 nM
IC50 [39]: > 1300 nM
IC50 [40]: > 1920 nM
IC50 [41]: 445 nM
IC50 [42]: 1020 nM
IC50 [43]: > 1920 nM
IC50 [44]: 1300 nM
IC50 [45]: > 1920 nM
IC50 [46]: > 700 nM
IC50 [47]: 3010 nM
IC50 [48]: 841 nM
IC50 [49]: 800 nM
IC50 [50]: 1040 nM
IC50 [51]: > 1920 nM
IC50 [52]: 1440 nM
IC50 [53]: 1910 nM
IC50 [54]: 447 nM
IC50 [55]: > 700 nM
IC50 [56]: > 1920 nM
IC50 [57]: > 1920 nM
IC50 [58]: > 1920 nM
IC50 [59]: > 1920 nM
IC50 [60]: 660 nM
IC50 [61]: 825 nM
IC50 [62]: > 2000 nM
IC50 [63]: > 2000 nM
IC50 [64]: > 2000 nM
IC50 [65]: > 1500 nM
